In patent US11248013B2, “Tricyclic inhibitors of poly(ADP-ribose)polymerase” (Rakovina Therapeutics Inc., priority 2011, dated 2022):

molecular target: PARP-1 (Homo sapiens (Human), UniProt P09874); test: PARP-1 Enzyme Assay (HT Universal Colorimetric PARP Assay Kit); format: biochemical; conditions: OD450, read-out: IC50 (PARP-1 inhibition)
Protocol: Inhibition of PARP-1 enzymatic activities was measured using an HT Universal Colorimetric PARP Assay Kit (Trevigen, catalogue #4677-096-K) following the standard procedures.
Serial dilutions of PARP compounds were added to appropriate wells. The compound was incubated with PARP enzyme at RT for 10 min, and the reaction was initiated by addition of the PARP substrate cocktail, Each concentration of compound was tested in triplicate wells. After 15 min reaction, the reaction was stopped, and the Strep-HRP was added into each well and incubated for 1 h at RT. After addition of TACS-Sapphire™ colorimetric substrate and incubated in dark for 15 min, the OD450 was read out with an EnVision instrument. IC50 values (the concentration at which 50% of the enzyme activity is inhibited) were calculated, which are determined over a range of different concentrations, normally from 10 μM to 0.1 nM.

Sequence of PARP-1 (P09874 whole entry): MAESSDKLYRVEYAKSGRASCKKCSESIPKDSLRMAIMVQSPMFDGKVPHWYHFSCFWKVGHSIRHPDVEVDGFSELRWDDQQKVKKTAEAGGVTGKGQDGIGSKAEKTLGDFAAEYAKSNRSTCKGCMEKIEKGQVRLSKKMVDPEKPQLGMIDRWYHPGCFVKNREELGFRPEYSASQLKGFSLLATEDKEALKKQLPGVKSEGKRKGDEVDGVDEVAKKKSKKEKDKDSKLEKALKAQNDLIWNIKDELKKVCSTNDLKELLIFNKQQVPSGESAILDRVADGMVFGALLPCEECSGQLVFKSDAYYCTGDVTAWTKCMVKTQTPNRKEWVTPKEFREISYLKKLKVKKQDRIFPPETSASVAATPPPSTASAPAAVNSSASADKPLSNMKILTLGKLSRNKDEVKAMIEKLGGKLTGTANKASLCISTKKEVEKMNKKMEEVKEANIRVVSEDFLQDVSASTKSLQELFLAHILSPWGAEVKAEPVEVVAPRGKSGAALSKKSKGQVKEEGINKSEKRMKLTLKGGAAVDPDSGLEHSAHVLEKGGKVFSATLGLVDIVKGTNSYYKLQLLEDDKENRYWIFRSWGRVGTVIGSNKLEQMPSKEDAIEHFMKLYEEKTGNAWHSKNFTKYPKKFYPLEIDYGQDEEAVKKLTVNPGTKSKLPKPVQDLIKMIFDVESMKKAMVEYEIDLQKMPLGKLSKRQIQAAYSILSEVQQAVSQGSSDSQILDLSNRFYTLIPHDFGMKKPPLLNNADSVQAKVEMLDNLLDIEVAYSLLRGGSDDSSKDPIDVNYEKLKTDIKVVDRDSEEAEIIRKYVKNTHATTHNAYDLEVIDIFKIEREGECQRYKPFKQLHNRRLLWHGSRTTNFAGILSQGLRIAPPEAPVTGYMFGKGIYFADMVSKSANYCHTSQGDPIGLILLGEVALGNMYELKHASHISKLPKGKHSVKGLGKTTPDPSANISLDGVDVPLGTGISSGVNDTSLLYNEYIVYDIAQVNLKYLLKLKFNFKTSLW

Row | Molecule | IC50
1 | O=c1[nH]nc(Cc2ccc(F)c(P3(=O)CCN(c4ccc(Cl)nn4)CC3)c2)c2ccccc12 [Example 13, 4-(3-(1-(6-chloropyridazin-3-yl)-4-oxido-1,4-azaphosphinan-4-yl)-4-fluorobenzyl)phthalazin-1(2H)-one] | < 100 nM
2 | 4-(4-fluoro-3-(4-oxido-1-pivaloyl-1,4-azaphosphinan-4-yl)benzyl)phthalazin-1(2H)-one [Example 8] | < 100 nM
3 | 4-(3-(1-(cyclobutanecarbonyl)-4-oxido-1,4-azaphosphinan-4-yl)-4-fluorobenzyl)phthalazin-1(2H)-one [Example 4] | < 100 nM
4 | CP1(=O)CCN(C(=O)c2cc(Cc3n[nH]c(=O)c4ccccc34)ccc2F)CC1 [Example 50, 4-[[4-fluoro-3-(4-methyl-4-oxo-1,4-azaphosphinane-1-carbonyl)phenyl]methyl]-2H-phthalazin-1-one] | < 100 nM
5 | N#Cc1ccc(N2CCP(=O)(c3cc(Cc4n[nH]c(=O)c5ccccc45)ccc3F)CC2)cc1 [Example 15, 4-(4-(2-fluoro-5-((4-oxo-3,4-dihydrophthalazin-1-yl)methyl)phenyl)-4-oxido-1,4-azaphosphinan-1-yl)benzonitrile] | 1000 to 10000 nM
6 | 4-(3-(1-(cyclopropanecarbonyl)-4-oxido-1,4-azaphosphinan-4-yl)-4-fluorobenzyl)phthalazin-1(2H)-one [Example 3] | < 100 nM
7 | CN(C)C(=O)N1CCP(=O)(c2cc(Cc3n[nH]c(=O)c4ccccc34)ccc2F)CC1 [Example 9, 4-(2-fluoro-5-((4-oxo-3,4-dihydrophthalazin-1-yl)methyl)phenyl)-N,N-dimethyl-1,4-azaphosphinane-1-carboxamide 4-oxide] | 100 to 1000 nM

Second part, the molecule after the results:

Row | IC50 | Molecule
8 | < 100 nM | CCCN1CCP(=O)(c2cc(Cc3n[nH]c(=O)c4ccccc34)ccc2F)CC1 [Example 45]
9 | < 100 nM | O=c1[nH]nc(Cc2ccc(F)c(P3(=O)CCN(c4ncc5ccccc5n4)CC3)c2)c2ccccc12 [Example 30, 4-(4-fluoro-3-(4-oxido-1-(quinazolin-2-yl)-1,4-azaphosphinan-4-yl)benzyl)phthalazin-1(2H)-one]
10 | < 100 nM | O=c1[nH]nc(C(O)c2ccc(F)c(P3(=O)CCN(C4CC4)CC3)c2)c2ccccc12 (racemic) [Example 58, (±)-4-[(3-(1-cyclopropyl-4-oxido-1,4-azaphosphinan-4-yl)-4-fluoro-1-phenyl)(hydroxymethyl)]phthalazin-1(2H)-one]
11 | < 100 nM | O=c1[nH]nc(Cc2ccc(F)c(P3(=O)CCN(CC(F)(F)F)CC3)c2)c2ccccc12 [Example 49, 4-(4-fluoro-3-(4-oxido-1-(2,2,2-trifluoroethyl)-1,4-azaphosphinan-4-yl)benzyl)phthalazin-1(2H)-one]
12 | < 100 nM | O=c1[nH]nc(Cc2ccc(F)c(P3(=O)CCN(c4ncccn4)CC3)c2)c2ccc(F)cc12 [Example 56, 4-(4-fluoro-3-(4-oxido-1-(pyrimidin-2-yl)-1,4-azaphosphinan-4-yl)benzyl)-7-fluorophthalazin-1(2H)-one]
13 | 100 to 1000 nM | 4-(3-(1-(3-chloro-5-(trifluoromethyl)pyridin-2-yl)-4-oxido-1,4-azapbosphinan-4-yl)-4-fluorobenzyl)phthalazin-1(2H)-one [Example 20]
14 | < 100 nM | O=c1[nH]nc(Cc2ccc(F)c(P3(=O)CCN(c4ncnc5ccccc45)CC3)c2)c2ccccc12 [Example 21, 4-(4-fluoro-3-(4-oxido-1-(quinazolin-4-yl)-1,4-azaphosphinan-4-yl)benzyl)phthalazin-1(2H)-one]
15 | < 100 nM | [2H]C([2H])(c1ccc(F)c(P2(=O)CCN(C3CC3)CC2)c1)c1n[nH]c(=O)c2cc(F)ccc12 [Example 55, 4-[(3-(1-cyclopropyl-4-oxido-1,4-azaphosphinan-4-yl)-4-fluorophenyl)dideuteromethyl]-7-fluorophthalazin-1 (2H)-one]
16 | 100 to 1000 nM | CC(C)(C)CN1CCP(=O)(c2cc(Cc3n[nH]c(=O)c4ccccc34)ccc2F)CC1 [Example 47, 4-(4-fluoro-3-(1-neopentyl-4-oxido-1,4-azaphosphinan-4-yl)benzyl)phthalazin-1(2H)-one]
